The source made the active and inactive calls. No cut-off for these calls is given here.
Columns and labels:
Drosophila [1] = assay: Protection against fragile X syndrome phenotypes in Fmr1 null mutant Drosophila Fmr1'3/TM6C assessed as embryo viability at 40 uM at 25 degC by flow cytometry relative to untreated homozygous embryos; format: functional
Drosophila [2] = assay: Cytoprotection against glutamate-induced toxicity in laboratory prepared food feeded Fmr1 null mutant Drosophila Fmr1'3/TM6C fragile X syndrome model assessed as embryo viability at 80 uM by flow cytometry relative to untreated embryos; format: functional, organism-based
Drosophila [3] = assay: Suppression of glutamate-induced beta-lobe midline crossing deffect in mushroom bodies of laboratory prepared food feeded Fmr1 null mutant Drosophila Fmr1'3/TM6C fragile X syndrome model at 80 uM by Fas2 staining based confocal microscopy; format: functional, organism-based
Drosophila [4] = assay: Protection against fragile X syndrome phenotypes in laboratory prepared food feeded Fmr1 null mutant Drosophila Fmr1'3/TM6C assessed as homozygous Fmr1-/- embryo viability at 10 uM at 25 degC by flow cytometry relative to untreated homozygous embryos fed with only laboratory prepared food; format: functional
Drosophila [5] = assay: Suppression of glutamate-induced courtship behavior deffect in laboratory prepared food feeded male Fmr1 null mutant Drosophila Fmr1'3/TM6C fragile X syndrome model assessed as courtship behavior towards female flies at 80 uM for 10 mins by courtship index assay; format: functional, organism-based
Drosophila [6] = assay: Cytoprotection against glutamate-induced toxicity in laboratory prepared food feeded Fmr1 null mutant Drosophila Fmr1'3/TM6C fragile X syndrome model assessed as embryo viability at 40 uM by flow cytometry relative to untreated embryos; format: functional, organism-based
Drosophila [7] = assay: Protection against fragile X syndrome phenotypes in laboratory prepared food feeded Fmr1 null mutant Drosophila Fmr1'3/TM6C assessed as homozygous Fmr1-/- embryo viability at 40 uM at 25 degC by flow cytometry relative to untreated homozygous embryos fed with only laboratory prepared food; format: functional
Drosophila [8] = assay: Cytoprotection against glutamate-induced toxicity in laboratory prepared food feeded Fmr1 null mutant Drosophila Fmr1'3/TM6C fragile X syndrome model assessed as embryo viability at 40 uM in presence of 40 uM GABAB receptor antagonist CGP-54626 by flow cytometry relative to untreated embryos; format: functional, organism-based
Drosophila [9] = assay: Suppression of Futsch protein overexpression in head lysates of laboratory prepared food feeded Fmr1 null mutant Drosophila Fmr1'3/TM6C fragile X syndrome model at 40 uM by Western blot; format: functional, organism-based
Drosophila [10] = assay: Protection against fragile X syndrome phenotypes in laboratory prepared food feeded Fmr1 null mutant Drosophila Fmr1'3/TM6C assessed as homozygous Fmr1-/- embryo viability at 5 uM at 25 degC by flow cytometry relative to untreated homozygous embryos fed with only laboratory prepared food; format: functional
Drosophila [11] = assay: Suppression of beta-lobe midline crossing deffect in mushroom bodies of laboratory prepared food feeded Fmr1 null mutant Drosophila Fmr1'3/TM6C fragile X syndrome model at by Fas2 staining based confocal microscopy; format: functional
Drosophila [12] = assay: Protection against fragile X syndrome phenotypes in laboratory prepared food feeded Fmr1 null mutant Drosophila Fmr1'3/TM6C assessed as homozygous Fmr1-/- embryo viability at 20 uM at 25 degC by flow cytometry relative to untreated homozygous embryos fed with only laboratory prepared food; format: functional
Drosophila [13] = assay: Cytoprotection against glutamate-induced toxicity in laboratory prepared food feeded Fmr1 null mutant Drosophila Fmr1'3/TM6C fragile X syndrome model assessed as genetic segregation ratio at 40 uM by flow cytometry relative to untreated embryos; format: functional
Drosophila [14] = assay: Suppression of glutamate-induced beta-lobe midline crossing deffect in mushroom bodies of laboratory prepared food feeded Fmr1 null mutant Drosophila Fmr1'3/TM6C fragile X syndrome model at 40 uM by Fas2 staining based confocal microscopy; format: functional
Drosophila [15] = assay: Cytoprotection against glutamate-induced toxicity in laboratory prepared food feeded Fmr1 null mutant Drosophila Fmr1'3/TM6C fragile X syndrome model assessed as embryo viability at 40 uM in presence of GABAB receptor antagonist CGP-54626 by flow cytometry relative to untreated embryos; format: functional
Drosophila [16] = assay: Suppression of glutamate-induced beta-lobe midline crossing deffect in mushroom bodies of laboratory prepared food feeded Fmr1 null mutant Drosophila Fmr1'3/TM6C fragile X syndrome model assessed as incidence of severe deffects at 40 uM by Fas2 staining based confocal microscopy; format: functional
Drosophila [17] = assay: Suppression of glutamate-induced Futsch protein overexpression in head lysates of laboratory prepared food feeded Fmr1 null mutant Drosophila Fmr1'3/TM6C fragile X syndrome model at 40 uM by Western blot; format: functional, organism-based
Drosophila [18] = assay: Suppression of glutamate-induced courtship behavior deffect in laboratory prepared food feeded male Fmr1 null mutant Drosophila Fmr1'3/TM6C fragile X syndrome model assessed as courtship behavior towards female flies at 40 uM for 10 mins by courtship index assay; format: functional, organism-based
Drosophila [19] = assay: Suppression of Futsch protein overexpression in head lysates of laboratory prepared food feeded Fmr1 null mutant Drosophila Fmr1'3/TM6C fragile X syndrome model at 40 uM in presence of Scopolamine by Western blot; format: functional, organism-based

Q: With `Cl.Cl.NNCc1cccc(O)c1` as the molecule, how does the Activity (Drosophila [1]) read?
A: 67%

Q: With `Cc1cccc(C#Cc2ccccc2)n1` as the molecule, how does the Activity (Drosophila [2]) read?
A: Active

Q: What about the Activity (Drosophila [3]) of the same molecule?
A: Active

Q: And the Activity (Drosophila [4])?
A: 61.6%

Q: And the Activity (Drosophila [5])?
A: Active

Q: `C[C@H](NC[C@H](O)CP(=O)(O)CC1CCCCC1)c1ccc(Cl)c(Cl)c1` was tested. Which Activity (Drosophila [6]) did it give?
A: inactive

Q: Which Activity (Drosophila [1]) does the source give for `CC(=O)N[C@@H](CS)C(=O)O` [ACETYLCYSTEINE] here?
A: 67%

Q: What does the source list for `CN1[C@@H]2CC[C@H]1C[C@@H](OC(c1ccccc1)c1ccccc1N)C2` (stereo not given in full) [AMINOBENZTROPINE]?
A: Activity (Drosophila [1]): 25%; Activity (Drosophila [7]): 66.38%; Activity (Drosophila [8]): Active; Activity (Drosophila [9]): Active

Q: How did the Activity (Drosophila [1]) turn out when `Cc1cc(O)cc(C)c1Cl` [CHLOROXYLENOL] was run?
A: 42%

Q: Which Activity (Drosophila [1]) does the source give for `CCN(CC)CCOc1ccc(C(=C(Cl)c2ccccc2)c2ccccc2)cc1` [CLOMIPHENE] here?
A: 25%

Q: And the Activity (Drosophila [10])?
A: 54.96%

Q: How did the Activity (Drosophila [1]) turn out when `CN1CC(=O)NC1=N` [CREATININE] was run?
A: 58%

Q: What about the Activity (Drosophila [7]) of the same molecule?
A: 123.2%

Q: And the Activity (Drosophila [11])?
A: 69%

Q: And the Activity (Drosophila [9])?
A: Active

Q: Which Activity (Drosophila [1]) does the source give for `C/C=C(/C(=C/C)c1ccc(O)cc1)c1ccc(O)cc1` [DIENESTROL] here?
A: 33%

Q: What about the Activity (Drosophila [7]) of the same molecule?
A: 71.3%

Q: `Cl.NCCc1ccc(O)c(O)c1` [DOPAMINE HYDROCHLORIDE] was tested. Which Activity (Drosophila [1]) did it give?
A: 25%

Q: Which results are given for `C[C@@H](CO)NC(=O)[C@@H]1C=C2c3cccc4[nH]cc(c34)C[C@H]2N(C)C1.O=C(O)/C=C\C(=O)O` [ERGONOVINE MALEATE]?
A: Activity (Drosophila [1]): 33%; Activity (Drosophila [12]): 69.85%

Q: How did the Activity (Drosophila [1]) turn out when `NCCCC(=O)O` [GAMMA-AMINOBUTYRIC ACID] was run?
A: 25%

Q: What about the Activity (Drosophila [13]) of the same molecule?
A: 33%

Q: And the Activity (Drosophila [7])?
A: 83.1%

Q: And the Activity (Drosophila [14])?
A: 70%

Q: And the Activity (Drosophila [15])?
A: 8%

Q: And the Activity (Drosophila [16])?
A: 7%

Q: And the Activity (Drosophila [17])?
A: Active

Q: And the Activity (Drosophila [18])?
A: Active

Q: What about the Activity (Drosophila [6]) of the same molecule?
A: Active

Q: With `O=c1cc(CO)occ1O` [KOJIC ACID] as the molecule, how does the Activity (Drosophila [1]) read?
A: 25%

Q: What about the Activity (Drosophila [4]) of the same molecule?
A: 73.06%

Q: Which Activity (Drosophila [1]) does the source give for `O=C(O)C1CCCNC1` (stereo not given) [NIPECOTIC ACID] here?
A: 58%

Q: And the Activity (Drosophila [7])?
A: 84.2%

Q: What about the Activity (Drosophila [11]) of the same molecule?
A: 69%

Q: And the Activity (Drosophila [9])?
A: Active

Q: For `Cl.NCC(=O)c1ccccc1` [PHENACYLAMINE HYDROCHLORIDE], which Activity (Drosophila [1]) is on record?
A: 25%

Q: `CC[C@@H]1C(=O)OC[C@@H]1Cc1cncn1C.O=[N+]([O-])O` [PILOCARPINE NITRATE] was tested. Which Activity (Drosophila [1]) did it give?
A: 33%

Q: And the Activity (Drosophila [10])?
A: 68.5%

Q: And the Activity (Drosophila [19])?
A: inactive

Q: What about the Activity (Drosophila [11]) of the same molecule?
A: 69%

Q: What about the Activity (Drosophila [9]) of the same molecule?
A: Active

Q: Which Activity (Drosophila [1]) does the source give for `COC(=O)[C@H]1[C@H]2C[C@@H]3c4[nH]c5cc(OC)ccc5c4CCN3C[C@H]2C[C@@H](OC(=O)c2cc(OC)c(OC)c(OC)c2)[C@@H]1OC` [RESERPINE] here?
A: 25%

Reference: ChEMBL document CHEMBL1212701, “Identification of small molecules rescuing fragile X syndrome phenotypes in Drosophila” (2008)
